In the supplement of paper PMC10307832:

Experiments:
Assay in all cases: relative viability (nuclei count vs DMSO), 5 days (fraction); higher = more cells survive
Dasatinib + Decitabine = compound: Cc1nc(Nc2ncc(C(=O)Nc3c(C)cccc3Cl)s2)cc(N2CCN(CCO)CC2)n1 [Dasatinib] + Nc1ncn([C@H]2C[C@H](O)[C@@H](CO)O2)c(=O)n1 [Decitabine] (partner 2 µM)
Procedure, shortened: (§1)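 Relative viability equals treated-well nuclei counts divided by vehicle-well nuclei counts. Counts came from 4× images of lung cancer cell lines grown in 1536-well plates for 5 days after pin-tool dosing on the day after seeding. Dosing used one drug alone or a fixed anchor-drug dose plus five library-drug doses (not always all listed) in √10 steps, and values are medians of duplicate plates.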

ALW-II-49-7 + Luminespib = compound: Cc1ccc(C(=O)Nc2cccc(C(F)(F)F)c2)cc1Nc1cncc(C(N)=O)c1 [ALW-II-49-7] + CCNC(=O)c1noc(-c2cc(C(C)C)c(O)cc2O)c1-c1ccc(CN2CCOCC2)cc1 [Luminespib] (partner 0.01 µM)
Procedure, shortened: as §1

ALW-II-49-7 + Bortezomib = compound: Cc1ccc(C(=O)Nc2cccc(C(F)(F)F)c2)cc1Nc1cncc(C(N)=O)c1 [ALW-II-49-7] + CC(C)C[C@H](NC(=O)[C@H](Cc1ccccc1)NC(=O)c1cnccn1)B(O)O [Bortezomib] (partner 0.002 µM)
Procedure, shortened: as §1

Dasatinib + Olaparib = compound: Cc1nc(Nc2ncc(C(=O)Nc3c(C)cccc3Cl)s2)cc(N2CCN(CCO)CC2)n1 [Dasatinib] + O=C(c1cc(Cc2n[nH]c(=O)c3ccccc23)ccc1F)N1CCN(C(=O)C2CC2)CC1 [Olaparib] (partner 8 µM)
Procedure, shortened: as §1

Cell Line	relative viability (Dasatinib + Decitabine; first compound 0.005 µM)	relative viability (Dasatinib + Decitabine; first compound 0.01581 µM)	relative viability (Dasatinib + Decitabine; first compound 0.05 µM)	relative viability (Dasatinib + Decitabine; first compound 0.1581 µM)	relative viability (Dasatinib + Decitabine; first compound 0.5 µM)	relative viability (ALW-II-49-7 + Luminespib; first compound 0.08 µM)	relative viability (ALW-II-49-7 + Luminespib; first compound 0.253 µM)	relative viability (ALW-II-49-7 + Luminespib; first compound 0.8 µM)	relative viability (ALW-II-49-7 + Luminespib; first compound 2.53 µM)	relative viability (ALW-II-49-7 + Luminespib; first compound 8 µM)	relative viability (ALW-II-49-7 + Bortezomib; first compound 0.08 µM)	relative viability (ALW-II-49-7 + Bortezomib; first compound 0.253 µM)	relative viability (ALW-II-49-7 + Bortezomib; first compound 0.8 µM)	relative viability (ALW-II-49-7 + Bortezomib; first compound 2.53 µM)	relative viability (ALW-II-49-7 + Bortezomib; first compound 8 µM)	relative viability (Dasatinib + Olaparib; first compound 0.005 µM)	relative viability (Dasatinib + Olaparib; first compound 0.01581 µM)	relative viability (Dasatinib + Olaparib; first compound 0.05 µM)	relative viability (Dasatinib + Olaparib; first compound 0.1581 µM)	relative viability (Dasatinib + Olaparib; first compound 0.5 µM)
NCI-H650	0.325	0.281	0.318	0.341	0.302	0.853	0.972	0.632	0.722	0.526	0.649	0.906	0.913	0.88	0.663	0.395	0.357	0.415	0.392	0.263
NCI-H1975	0.377	0.384	0.368	0.266	0.224	0.431	0.165	0.235	0.292	0.198	0.274	0.485	0.333	0.338	0.319	0.707	0.723	0.706	0.448	0.216
NCI-H2085	0.616	0.424	0.385	0.264	0.25	0.405	0.465	0.445	0.4	0.44	0.989	1	1.13	1.16	0.969	0.799	0.745	0.553	0.292	0.187
NCI-H3122	0.503	0.476	0.536	0.428	0.33	0.0922	0.0773	0.124	0.102	0.195	1.09	1.06	1.11	1.08	1.11	0.606	0.543	0.657	0.574	0.534
NCI-H1651	0.629	0.507	0.558	0.585	0.473	0.637	0.802	0.801	0.644	0.876	1.06	0.976	1.04	0.933	0.936	0.178	0.175	0.174	0.17	0.16
NCI-H441	0.276	0.232	0.272	0.202	0.19	0.332	0.32	0.313	0.35	0.243	0.333	0.559	0.431	0.384	0.208	0.532	0.529	0.519	0.387	0.309
ABC-1	1.31	0.953	1.18	1.06	0.975	0.472	0.535	0.718	0.355	0.496	0.414	0.34	0.31	0.318	0.287	0.867	0.767	0.786	0.621	0.841
NCI-H2126	0.567	0.51	0.553	0.437	0.351	0.938	0.932	0.855	0.803	0.868	1.09	1.17	1.2	1.08	1.17	0.932	0.84	0.845	0.681	0.416
RERF-LC-KJ	0.701	0.621	0.552	0.629	0.627	1.56	1.18	1.68	1.39	1.15	0.861	1.36	1.06	0.813	1.14	0.906	0.836	0.87	0.788	0.816
NCI-H1666	0.725	0.691	0.73	0.656	0.521	0.951	0.999	1.04	1.12	1	0.663	0.79	0.87	1.04	0.928	0.756	0.752	0.73	0.782	0.676
PC-14	0.301	0.258	0.215	0.186	0.0693	0.191	0.161	0.119		0.125	0.88	0.872	0.83	0.758	0.857	0.29	0.31	0.368	0.224	0.0781
NCI-H1915	0.291	0.249	0.231	0.224	0.144	0.745	0.612	0.679	0.493	0.441	0.648	1	0.918	0.931	0.67	0.267	0.231	0.235	0.151	0.149
NCI-H661	0.566	0.528	0.518	0.394	0.404	1.04	1.01	0.913	0.976	0.998	0.865	0.796	0.717		0.716	0.731	0.792	0.747	0.618	0.592
PC-3 [JPC-3]	0.799	0.802	0.81	0.755	0.623	0.669	0.698	0.636	0.548	0.772	0.746	0.777	0.758	0.862	0.825	1.22	1.14	1.16	1.08	0.609
LCLC-103H	0.69	0.7	0.737	0.625	0.446	0.852	1.01	1.03	0.854	1.03	1.03	0.859	1.1	0.9	0.962	0.74	0.716	0.718	0.508	0.356
EKVX	0.307	0.291	0.304	0.187	0.146	0.679	0.812	0.825	0.903	0.803	1.08	0.919	0.835	0.424	1.04	0.852	0.669	0.676	0.338	0.189

Cell Line	relative viability (Dasatinib + Decitabine; first compound 0.005 µM)	relative viability (Dasatinib + Decitabine; first compound 0.01581 µM)	relative viability (Dasatinib + Decitabine; first compound 0.05 µM)	relative viability (Dasatinib + Decitabine; first compound 0.1581 µM)	relative viability (Dasatinib + Decitabine; first compound 0.5 µM)	relative viability (ALW-II-49-7 + Luminespib; first compound 0.08 µM)	relative viability (ALW-II-49-7 + Luminespib; first compound 0.253 µM)	relative viability (ALW-II-49-7 + Luminespib; first compound 0.8 µM)	relative viability (ALW-II-49-7 + Luminespib; first compound 2.53 µM)	relative viability (ALW-II-49-7 + Luminespib; first compound 8 µM)	relative viability (ALW-II-49-7 + Bortezomib; first compound 0.08 µM)	relative viability (ALW-II-49-7 + Bortezomib; first compound 0.253 µM)	relative viability (ALW-II-49-7 + Bortezomib; first compound 0.8 µM)	relative viability (ALW-II-49-7 + Bortezomib; first compound 2.53 µM)	relative viability (ALW-II-49-7 + Bortezomib; first compound 8 µM)	relative viability (Dasatinib + Olaparib; first compound 0.005 µM)	relative viability (Dasatinib + Olaparib; first compound 0.01581 µM)	relative viability (Dasatinib + Olaparib; first compound 0.05 µM)	relative viability (Dasatinib + Olaparib; first compound 0.1581 µM)	relative viability (Dasatinib + Olaparib; first compound 0.5 µM)
NCI-H460	0.568	0.444	0.352	0.29	0.286	0.0293	0.0319	0.0397	0.0303	0.0275	0.869	1.04	1.04	0.956	1.05	0.362	0.383	0.38	0.247	0.199
NCI-H727	0.818	0.7	0.742	0.718	0.295	0.419	0.336	0.392	0.367	0.239	0.678	1.09	0.67	0.895	0.787	0.74	0.603	0.654	0.618	0.288
NCI-H838	0.45	0.422	0.39	0.377	0.3	0.233	0.257	0.344	0.272	0.211	0.71	0.839	0.721	0.64	1.05	0.622	0.453	0.403	0.229	0.179
NCI-H1792	0.544	0.51	0.469	0.342	0.178		0.383	0.276	0.293	0.349	0.745	0.878	0.82	0.922	0.95	0.385	0.348	0.411	0.2	0.0885
H3255	0.66	0.573	0.568	0.493	0.311	1.02	0.851	0.972	0.876	0.648	0.974	0.841	0.933	0.679	0.625	0.551	0.604	0.563	0.476	0.341
EPLC-272H	0.39	0.392	0.381	0.295	0.153	0.218		0.324	0.312	0.276	0.806	0.839	0.934	1.05	0.751	0.793	0.681	0.697	0.33	0.208
NCI-H647	0.379	0.311	0.315	0.173	0.182	0.134	0.206	0.236	0.167	0.154	0.858	1.13	0.799	0.725	0.801	0.428	0.301	0.217	0.139	0.116
LXF-289	0.398	0.336	0.31	0.358	0.142	0.731	0.626	0.825	0.688	0.848	0.973	0.965	1.02	1.1	1.04	1.07	1.02	0.925	0.268	0.158
NCI-H1650	0.462	0.255	0.475	0.318	0.314	0.199	0.169	0.209	0.19	0.206	0.203	0.218	0.218	0.198	0.206	0.741	0.614	0.571	0.442	0.282
NCI-H1755	0.682	0.641	0.602	0.509	0.323	0.341	0.497	0.421	0.283	0.268	0.963	1.04	0.963	0.923	0.849	0.806	0.577	0.68	0.408	0.279
HCC-15	0.609	0.606	0.496	0.428	0.466	0.172	0.302	0.319	0.304	0.391	0.957	0.92	0.959	1.1	0.952	0.763	0.764	0.851	0.733	0.689
EMC-BAC-2	0.982	0.946	0.824	0.758	0.712	1.07	1.14	1.22	1.06	0.998	1.04	0.979	1.1	1.06	0.844	0.462	0.404	0.447	0.355	0.301
NCI-H1734	0.508	0.48	0.533	0.412	0.321	0.209	0.177	0.169	0.181	0.186	1.07	1.14	0.846	0.823	0.738	0.601	0.479	0.509	0.367	0.196
HOP-62	0.218	0.227	0.261	0.23	0.191	0.959	0.883	0.75	0.702	0.735	0.852	1.06	1.02	0.369	0.965	0.32	0.381	0.307	0.434	0.204
SW 1573	0.431	0.428	0.381	0.288	0.405	0.29	0.223	0.251	0.289	0.144	1.01	0.983	1.14	1.01	0.959	0.424	0.378	0.347	0.253	0.327
SK-LU-1	0.609	0.449	0.437	0.282	0.24	0.184	0.221	0.21	0.192	0.157	0.741	1.25	1.17	1.06	0.662	0.471	0.317	0.323	0.188	0.167
